Values of other authors in patent publication US20230355508A1, “TREATING NEUROPATHIC PAIN IN SPINAL CORD INJURED INDIVIDUALS” (CNS Biosciences, Inc., priority 2016, published 2023).
Like-named read-outs stand apart in the source and are kept apart here.

Test system: neuropathic pain following spinal cord injury
Conditions: Finnerup et al., Scandinavian Journal of Pain 2009; for relief of neuropathic pain following spinal cord injury: patients with neuropathic pain following SCI

In the case of CC[C@@H](C(N)=O)N1CCCC1=O (single isomer, unassigned) [levetiracetam], the “relief of spasm severity following spinal cord injury” value (patients with SCI) is given as “does not relieve”, the “relief of neuropathic pain following spinal cord injury” value is given as “does not relieve” and the “relief of neuropathic pain following spinal cord injury” value (listed as Levetiracetam) is given as “no analgesic or other benefit”.
